Series [1] is described as follows: in vitro. It is filed as in vitro ADME. The following applies: conversion of profenofos to BCP; for Km: pH 7.4. The procedure:
(§1) Incubations of profenofos with rat and human liver microsomes, liver cytosol and plasma were performed to quantify in vitro rates of BCP formation. Conditions were optimized to be linear for metabolite formation with regard to incubation time and microsomal, cytosolic and plasma protein concentration (data not shown). The final incubations were carried out in 100 mM Tris HCl (pH 7.4, 37 °C) containing (final concentrations) 5 mM MgCl2, 2 mM CaCl2 [to stimulate PON1 activity (Carr et al. [2015])], 2 mM NADPH (cofactor to also include CYP-mediated metabolism), enzyme preparation (final concentration 2 mg/ml for human liver microsomes and cytosol and 4.4 mg/ml for human plasma; 0.5 mg/ml for rat microsomes and cytosol and 1.65 mg/ml for rat plasma) and profenofos (at final concentrations ranging from 1 to 100 μM, added from 100 times concentrated stock solutions in DMSO). Control incubations were performed in the absence of microsomes, cytosol or plasma. After 2 min pre-incubation, the reaction was initiated by adding the substrate and mixtures were incubated for 2 min in a 37 °C water bath. The total volume of the incubation mixtures was 200 μl. The reaction was terminated by the addition of 50 μl ice cold ACN and samples were kept on ice. The mixture was centrifuged at 14,000g for 20 min at 4 °C and the supernatant was analyzed using UPLC-UV.
(§2) All samples from incubations were analyzed using a Waters Acquity UPLC H class system that consisted of a quaternary solvent manager, a sample manager, and a photodiode array (PDA) detector, equipped with a Water Acquity UPLC® BEH C18 column (1.7 μm, 2.1 × 50 mm) and Waters Xbridge UPLC® BEH C18 pre-column (2.5 μM, 2.1 × 5 mm). The temperature of the column was kept at 40 °C and the auto sampler at 10 °C during the UPLC analysis. The mobile phases used for the analysis consisted of (A) 0.1% TFA in nanopure water and (B) 100% ACN. A gradient elution at a flow rate of 0.6 ml/min was applied for the analysis with the initial condition of 100% A:0% B (v/v), changing in a linear way to 0% A:100% B from 0 to 6 min, which was maintained for 30 s, and then changed back to the initial conditions in 30 s, which were maintained for 1 min. The injection volume for each sample was 3.5 μl.
(§3) Under these conditions, the retention times of profenofos and BCP were 4.76 and 3.37 min, respectively. The amounts of profenofos and BCP were quantified by integrating the peak areas at 237 nm using calibration curves that were prepared using commercially available standards.
(§4) Kinetic parameters including the apparent maximum velocity (Vmax) and the apparent Michaelis–Menten constant (Km) for BCP formation were obtained by fitting the data for the substrate concentration-dependent rate of conversion (expressed in nmol/min/mg protein) using GraphPad Prism 5, version 5.04 (San Diego, California, USA) to the standard Michaelis–Menten equation: V=Vmax∗S/(Km+S) in which the S represents the concentration of substrate, expressed in μM, V and Vmax the velocity and the maximum velocity of the reaction, respectively, expressed in nmol/min/mg protein, and Km the apparent Michaelis–Menten constant, expressed in μM. The kinetic parameter values for conversion of profenofos to BCP in the liver microsomes, liver cytosol and plasma were determined. To determine the catalytic efficiency, Vmax was divided by the Km.

Series [2] is described as follows: Control incubations without microsomes, cytosol or plasma (spontaneous hydrolysis). It is filed as physicochemical. The following applies: 100 mM Tris HCl pH 7.4, 37 °C, 2 min, no enzyme preparation. The procedure:
Incubations of profenofos with rat and human liver microsomes, liver cytosol and plasma were performed to quantify in vitro rates of BCP formation. Conditions were optimized to be linear for metabolite formation with regard to incubation time and microsomal, cytosolic and plasma protein concentration (data not shown). […] The mixture was centrifuged at 14,000g for 20 min at 4 °C and the supernatant was analyzed using UPLC-UV.
The conversion of profenofos to BCP was measured in incubations with both rat and human liver microsomes, cytosol and plasma. […] In control incubations, small amounts (max 0.04% of the amount of profenofos added) of BCP were detected, indicating some spontaneous hydrolysis of profenofos in the aqueous environment, which has also been observed in previous studies (Aly and Badawy [1982]). The BCP formation data for microsomes, cytosol and plasma were, therefore, corrected for BCP levels detected in control incubations.

Series [3] is described as follows: in vitro. The class given is in vitro ADME, human. The conditions noted are these: for Vmax / Km: conversion of profenofos to BCP; for Km: pH 7.4. The procedure: as §1, §2, §3, §4

The source of these data is publication PMC8032624, “Prediction of dose-dependent in vivo acetylcholinesterase inhibition by profenofos in rats and humans using physiologically based kinetic (PBK) modeling-facilitated reverse dosimetry” (Archives of Toxicology, 2021).

In general, Km refers to the substrate concentration at which the rate is half of its maximum. On to `CCCSP(=O)(OCC)Oc1ccc(Br)cc1Cl` (stereo not shown) [profenofos, O-(4-bromo-2-chlorophenyl) O-ethyl S-propyl phosphorothioate], for which, in “in vitro [1]” (rat liver cytosol), the Vmax is listed as 0.95 nmol/min/mg cytosolic protein and the Km turned out to be 0.34 µM. In the series “in vitro [1]” (rat liver microsomes), the Vmax is 8.9 nmol/min/mg microsomal protein and the Km was found to be 8.1 µM. Besides, in “in vitro [1]” (rat plasma), the Vmax was 0.68 nmol/min/mg plasma protein and the Km turned out to be 3.6 µM. Moreover, in series [2], the “BCP detected in control incubations (spontaneous hydrolysis)” value is reported as ≤ 0.04 % of the amount of profenofos added. Further, in the series “in vitro [3]” (human liver cytosol), the Vmax is 1.1 nmol/min/mg cytosolic protein and the Km stood at 1.4 µM. For the same compound, in the series “in vitro [3]” (human liver microsomes), the Vmax was 1.2 nmol/min/mg microsomal protein and the Km was 6.9 µM. Besides, in “in vitro [3]” (human plasma), the Vmax is listed as 0.99 nmol/min/mg plasma protein and the Michaelis-Menten constant (Km) is 158 µM. Also, in “in vitro [3]” (human vs rat liver cytosol), the “Catalytic efficiency, fold lower for human than rat liver cytosol” value turned out to be 3.8 fold; the “Km, fold higher for human than rat liver cytosol” value stood at 4.1 fold; the “Vmax, fold higher for human than rat liver cytosol” value came to 1.1 fold. For the same compound, in “in vitro [3]” (human vs rat liver microsomes), the “Catalytic efficiency, fold lower in human than rat liver microsomes” value is 6.5 fold; the “Km, fold lower in human than rat liver microsomes” value is recorded as 1.2 fold; the “Vmax, fold lower in human than rat liver microsomes” value is 7.7 fold. Also, in the series “in vitro [3]” (human vs rat plasma), the “Catalytic efficiency, fold lower for human than rat plasma” value is 32 fold; the “Km, fold higher for human than rat plasma” value is listed as 44 fold; the “Vmax, fold higher for human than rat plasma” value came to 1.5 fold.
